Source: patent US20240108591A1, “OR2L13 AGONISTS TO TREAT CVD WITH DY[…] ACTIVATION” (The Cleveland Clinic Foundation, priority 2022, published 2024)

What was measured:
healthy platelets [1] = assay: Platelet calcium transients (Fura-2 fluorescence); type: cell-based, human; settings: 300 μM, n=5
Excerpt: (§1) FIG. 5. A conserved olfactory receptor signal transduction pathway in healthy platelets. A. Proposed platelet OR2L13 signal transduction. Levo-carvone (L-Carvone) binds to OR2L13 on platelets to generate cAMP through adenylyl cyclase activation, and cAMP changes the cytosolic concentration of calcium (Ca 2+) directly and chloride conductance (C1^−) while inhibiting platelet reactivity through known, well-described mechanisms involving protein kinase (PKA). […] C. […] Data are mean±SEM (n=4, MQAE fluorescence). *P=0.0134 (−) carvone vs control by student's t-test. D. Carvone stimulation (300 μM) of healthy platelets promotes local brief calcium transients 20-80% above baseline is sustained compared with thrombin which attenuates over time (n=5 human platelets, Fura-2 fluorescence). MQAE=-[ethoxycarbonylmethyl]-6-methoxy-quinoliniumbromide. Arrowhead=drug addition.
(§2) ORs and downstream anoctamin proteins are generally expressed in afferent olfactory neurons (23). ORs are GPCRs positively linked to AC to increase cAMP (24), triggering […] as a downstream calcium-sensitive chloride channel (25). If this signal transduction pathway is conserved in platelets, OR2L13 activation should generate cAMP in platelets coincident with changes in platelet Cl^−- and Ca^2+ flux (schematic, FIG. 5A). […]

[2] = Circulating platelet number in treated mice; type: in vivo, mouse; settings: 100 mg/Kg/day i.p. for three days, FVB/tac mice
Experimental: To ascertain whether exogenous (−) carvone in mice impacted platelet reactivity and thrombosis in vivo, FVB/tac mice were administered (−) carvone at a dose of 100 mg/Kg/day for three days by i.p. injection. Platelets were then isolated from mice and thrombin-stimulated ex vivo. Thrombin-induced platelet degranulation ex vivo was inhibited in platelets from (−) carvone-treated mice (FIG. 7C). […] This effect is consistent with adequate absorption and distribution of (−) carvone to attenuate platelet activation and thrombosis in vivo.

[3] = system: platelets from FVB/tac mice; assay: Ex vivo thrombin-stimulated platelet activation after in vivo dosing; parameters: species or system mouse; settings: 100 mg/Kg/day i.p. for three days
Experimental: (§3) FIG. 7. Biomechanical platelet activation is inhibited by OR2L13 agonists. A. In vitro exposure of healthy platelets to steady laminar flow (S-flow) or disturbed flow (D-flow) for 60 mins after 30 minute pre-treatment with vehicle or (−) Carvone (300 μM). Platelet activation quantified by surface p-selectin expression as mean fluorescence intensity (MFI)±SEM, n=3 in each group by 2-way ANOVA. B. Calcein green-loaded healthy human blood flowing through a collagen-I coated microfluidics chamber at 40 dyn/cm^2 and imaged by confocal microscopy for adherent thrombus (green puncta) at three minutes. Data are represented as mean thrombus area of random fields±SEM, n=6-7 in each group following 30 minutes of vehicle (0.25% DMSO) or (−) carvone treatment (300 μM). Differences between groups was assessed by the student's t-test, * P<0.0001 vs. vehicle. C. WT Fvb/tac mice were given 100 mg/Kg/day (−) carvone IP for 3 days. Platelets were isolated and stimulated in the presence of thrombin. […] D. Time to hemostasis in mice treated with (−) carvone following surgical amputation of tail tip in seconds±SEM, n=6-9 in each group, *P=0.0046 vs. vehicle by Mann Whitney U.
(§4) To ascertain whether exogenous (−) carvone in mice impacted platelet reactivity and thrombosis in vivo, FVB/tac mice were administered (−) carvone at a dose of 100 mg/Kg/day for three days by i.p. injection. […]

healthy platelets [4] = assay: Flow cone and plate exposure to S-flow or D-flow, surface p-selectin by FACS; type: cell-based, human; settings: 300 μM, 30 minute pre-treatment, 60 mins flow
Experimental: (§5) FIG. 7. Biomechanical platelet activation is inhibited by OR2L13 agonists. A. In vitro exposure of healthy platelets to steady laminar flow (S-flow) or disturbed flow (D-flow) for 60 mins after 30 minute pre-treatment with vehicle or (−) Carvone (300 μM). Platelet activation quantified by surface p-selectin expression as mean fluorescence intensity (MFI)±SEM, n=3 in each group by 2-way ANOVA. B. Calcein green-loaded healthy human blood flowing through a collagen-I coated microfluidics chamber at 40 dyn/cm^2 and imaged by confocal microscopy for adherent thrombus (green puncta) at three minutes. […] Differences between groups was assessed by the student's t-test, * P<0.0001 vs. vehicle. […]
(§6) Healthy human blood loaded with the fluorophore calcein green at room temperature (10 μM, pH 7.4 for 20 minutes), and incubated with odorant ligands for 30 minutes. […] D-flow shear cannot be accurately determined, though the same rotational speed was used with S-flow and D-flow always run alongside no flow (static) conditions for internal consistency. Following exposure to S-flow or D-flow, platelets were imaged by confocal microscopy, surface marker proteins were determined quantitatively by flow cytometry, and platelet proteins were assessed by Western blotting.
(§7) We next evaluated biomechanical platelet activation by S-flow and D-flow. […]

healthy platelets [5] = assay: Platelet chloride efflux (MQAE fluorescence); type: cell-based, human; settings: 300 μM, n=4
Excerpt: as §1, §2

healthy human blood = assay: Thrombus formation in collagen-I coated microfluidics chamber at high shear; type: cell-based; settings: 300 μM, 30 minutes, 40 dyn/cm^2, three minutes
Experimental: as §5, §6, §7

FVB/tac mice [6] = assay: Murine AAA model (topical elastase, BAPN, anti-TGFβ), aortic diameter by ultrasound
Experimental: To augment aneurysm growth and induce ILT as described (26), anti—TGFβ blocking antibody (250 μg/mouse) was injected i.p. three times weekly starting the day of surgery. Each mouse (20-30 g in weight) is given 1 mL subcutaneous physiologic saline before surgical incision to account for insensible volume losses with gut externalization. Surgical procedures were conducted on a surgical heating pad at 37 ° C. Mice were anesthetized with isoflurane anesthesia (3% by nosecone) using oxygen as the carrier. Buprenorphine (0.05 mg/Kg) is given 30 minutes prior to skin incision. The area of incision is cleaned with 70% ethanol and betadine three times, and then infiltrated gently with local anesthesia (bupivacaine 5 mg/Kg SQ immediately prior to incision). A midline abdominal incision is made through the skin. The rectus sheath was divided at the Linea Alba. The intestines are exteriorized with a Qtip to the left of mouse onto gauze soaked with saline above and below to prevent drying. Whatman paper 6 mm×9 mm slices were placed on top of aorta below the bifurcation of the renal arteries. […] Hyperalgesia was assessed immediately after the procedure, and then twice daily for 48 hrs, and maintenance dose buprenorphine (0.05 mg/Kg) was given 8 hrs post-surgery, and then maintained at this dose for 48 hrs post-surgery. […]

[7] = system: platelets from healthy humans; assay: Light transmission aggregometry, ADP-induced platelet aggregation; type: cell-based, human; settings: 30 minutes preincubation, ADP 0.1 μM
Experimental: FIG. 6. […] A. Platelets were isolated from healthy humans and preincubated with (−) carvone or (+) carvone (300 μM) for 30 minutes. Platelets were stimulated with ADP (0.1 μM) and light transmission aggregometry assessed platelet activation. Representative tracings for each agonist are shown. B. Carvone (300 μM) or forskolin (10 μM) incubation individually or together for 30 minutes followed by platelet stimulation with ADP (0.1 μM). Light transmission aggregometry assessed platelet activation. Representative aggregometry tracings are shown. V=vehicle, C=(−)carvone, F=forskolin. Differences between groups by one-way ANOVA followed by Bonferroni correction *P<0.0001, **P=0.0003, ***P<0.0001 vs. vehicle (n=3). C. […] D. Platelets isolated from healthy humans and preincubated with (−) carvone (0-500 μM) for 30 minutes then stimulated with ADP (0.1 μM). Light transmission aggregometry assessed platelet activation. Representative tracings for each agonist are shown. E. Summary data for each concentration of (−) carvone as mean±SEM by ANOVA in the presence of ADP stimulation (0.1 μM). The downward red arrow is ADP in the presence of vehicle to which all data points were compared. *P<0.05 vs. vehicle, n=3 in each group by ANOVA, followed by Bonferroni correction. The broken blue line indicates the log IC50 concentration of (−) carvone. […]

FVB/tac mice [8] = assay: Tail bleeding time (time to hemostasis after tail tip amputation); type: in vivo, mouse; settings: 100 mg/Kg/day i.p. for three days
Experimental: as §3, §4

MMP2 [9] = assay: Aortic lysate MMP activity by zymography in AAA model; type: in vivo, mouse; settings: daily 100 mg/Kg i.p., aortic lysate at week 4 following AAA
Excerpt: We previously reported that platelet matrix metalloproteinase (MMP) activity is increased in myocardial infarction (7, 27). Given that patients with AAA show less aortic growth and rupture when taking aspirin and growth and rupture are linked to MMP activity (10), we hypothesized that circulating platelets in patients with AAA may synthesize and secrete MMPs. Platelet MMP9 activity was enhanced and the MMP9 Tissue Inhibitor of MMP9 (TIMP1) was reduced in AAA compared to healthy conditions (FIG. 9A). Platelet MMP9 content was unchanged in healthy compared with AAA platelets. Aortic tissue as well as luminal thrombus from patients with infrarenal AAA compared to non-aneurysmal cadaveric aorta had increased expression and activity of MMP9.

human platelets = assay: cAMP generation in human platelets; type: cell-based; settings: 300 μM, 5 minutes, n=7
Excerpt: as §1, §2

MMP2 [10] = assay: Platelet lysate MMP2 activity by zymography in AAA model; settings: isolated platelets from treated wild-type mice, week 4 following AAA
[11] = system: clinical population with AAA; settings: large clinical population (ref 10); cited from earlier work
patients with small AAA = settings: randomized clinical trial (ref 14); cited from earlier work

C=C(C)[C@@H]1CC=C(C)C(=O)C1 (single isomer, unassigned) [(−) carvone]
local brief calcium transients above baseline (healthy platelets [1]): 20-80% | circulating platelet number [2]: without affecting the circulating platelet number

C=C(C)C1CC=C(C)C(=O)C1 (single isomer, unassigned; (-)) [(−) carvone]
thrombin-induced platelet degranulation ex vivo [3]: inhibited | S-flow / D-flow induced platelet activation (surface p-selectin) (healthy platelets [4]): attenuated only D-flow induced platelet activation | chloride efflux (healthy platelets [5]): promotes chloride efflux | thrombosis in whole blood (thrombus area) (healthy human blood): attenuated | AAA growth (aortic diameter by ultrasound) (FVB/tac mice [6]; 100 mg/Kg/day i.p. starting at day 7, fvb/tac mice): attenuated AAA growth | ADP-induced platelet aggregation ([7]; 0-500 μM): blunted ADP-induced platelet aggregation dose-dependently | anti-platelet effect, (−) versus (+) enantiomer ([7]; 300 μM): more potent anti-platelet effect | tail bleeding times (FVB/tac mice [8]): prolonged | MMP2 activity in the aorta (MMP2 [9]): decreased MMP2 activity in the aorta | cAMP generation in platelets (human platelets): generates cAMP | platelet MMP2 activity compared to control mice (MMP2 [10]): decreased

CC(=O)Oc1ccccc1C(=O)O [aspirin, reference compound]
AAA growth (aortic diameter by ultrasound) (FVB/tac mice [6]; 30 mg/L in drinking water starting at day 7, fvb/tac mice): attenuated AAA growth similarly to aspirin | AAA growth in patients [11]: limits AAA growth

CCCSc1nc(N[C@@H]2C[C@H]2c2ccc(F)c(F)c2)c2nnn([C@@H]3C[C@H](OCCO)[C@@H](O)[C@H]3O)c2n1 [ticagrelor]
AAA growth in patients (patients with small AAA): did not alter AAA growth
